Where only a bound is given, the exact number is not on record here.

In this assay the target is Factor D (Homo sapiens, UniProt P00746). The assay is described as follows: Factor D esterolytic assay (Z-Lys-SBzl thioester substrate, DTNB, 405 nm). It is filed as biochemical. Particulars: substrate Z-Lys-SBzl 1.29 mM, 100 mM HEPES, 500 mM NaCl, pH 7.5, 10% DMSO, tested a minimum of three times. An outline of the steps: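 Run in pH 7.5 HEPES (100 mM) with 500 mM NaCl and 10% DMSO, with compound preincubated at room temperature or not before adding 1.29 mM Z-Lys-SBzl. Free thiol released by Factor D reacts with DTNB, and rate is followed at 405 nm minus 690 nm over 600 s. IC50 derives from rate-based inhibition, minimum three replicates.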
Chain of Factor D (P00746 26-253): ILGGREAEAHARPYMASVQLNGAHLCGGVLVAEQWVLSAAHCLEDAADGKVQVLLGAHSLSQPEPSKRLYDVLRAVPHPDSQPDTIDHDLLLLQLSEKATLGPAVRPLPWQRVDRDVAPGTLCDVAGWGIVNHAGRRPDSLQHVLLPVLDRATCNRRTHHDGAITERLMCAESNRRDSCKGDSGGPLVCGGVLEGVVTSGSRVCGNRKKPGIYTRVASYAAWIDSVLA
Usually IC50 stands for the concentration needed to halve the response being measured. Turning to `Cc1cc(-c2ccco2)cc2c3c(N)ncnc3n(CC(=O)N3[C@H](C(=O)Nc4cccc(Br)n4)C[C@@]4(C)C[C@@H]34)c12` [Compound 359c, (1R,3S,5R)-2-(2-(4-amino-6-(furan-2-yl)-8-methyl-9H-pyrimido[4,5-b]indol-9-yl)acetyl)-N-(6-bromopyridin-2-yl)-5-methyl-2-azabicyclo[3.1.0]hexane-3-carboxamide], the IC50 is < 100 nM. Under `NC(=O)c1cnc2c(ccn2CC(=O)N2C[C@H](F)C[C@H]2C(=O)NCc2cccc(Cl)c2F)c1N` [Compound 144g, 4-amino-1-(2-((2S,4R)-2-((3-chloro-2-fluorobenzyl)carbamoyl)-4-fluoropyrrolidin-1-yl)-2-oxoethyl)-1H-pyrrolo[2,3-b]pyridine-5-carboxamide] stands 100 to 1000 nM; under `Cc1cc(C(=O)O)cc2c3c(N)ncnc3n(CC(=O)N3[C@H](C(=O)Nc4cccc(Br)n4)C[C@@]4(C)C[C@@H]34)c12` [Compound 219a, 4-amino-9-(2-((1R,3S,5R)-3-((6-bromopyridin-2-yl)carbamoyl)-5-methyl-2-azabicyclo[3.1.0]hexan-2-yl)-2-oxoethyl)-8-methyl-9H-pyrimido[4,5-b]indole-6-carboxylic acid], < 100 nM. For `NCc1cccc(-c2cn(CC(=O)N3C[C@H](F)C[C@H]3C(=O)NCc3cccc(Cl)c3F)c3ncnc(N)c23)c1` [Compound 115e, (2S,4R)-1-(2-(4-amino-5-(3-(aminomethyl)phenyl)-7H-pyrrolo[2,3-d]pyrimidin-7-yl)acetyl)-N-(3-chloro-2-fluorobenzyl)-4-fluoropyrrolidine-2-carboxamide] the value was 100 to 1000 nM. Under `C[C@@]12C[C@@H](C(=O)Nc3cccc(Br)n3)N(C(=O)Cn3c4ccc(-c5ccccc5)nc4c4c(N)ncnc43)[C@@H]1C2` [Compound 299a, (1R,3S,5R)-2-(2-(4-amino-6-phenyl-9H-pyrido[2′,3′:4,5]pyrrolo[2,3-d]pyrimidin-9-yl)acetyl)-N-(6-bromopyridin-2-yl)-5-methyl-2-azabicyclo[3.1.0]hexane-3-carboxamide] stands < 100 nM; under `CC(=O)Nc1ccc2c(c1)c1c(N)ncnc1n2CC(=O)N1[C@@H]2C[C@@H]2C[C@H]1C(=O)Nc1cccc(Br)n1` [Compound 168g, (1R,3S,5R)-2-(2-(6-acetamido-4-amino-9H-pyrimido[4,5-b]indol-9-yl)acetyl)-N-(6-bromopyridin-2-yl)-2-azabicyclo[3.1.0]hexane-3-carboxamide], < 100 nM; under `Cc1cc(Br)cc2c3c(N)ncnc3n(CC(=O)N3[C@@H]4C[C@@H]4C[C@H]3C(=O)Nc3cccc(Br)n3)c12` [Compound 192g, (1R,3S,5R)-2-(2-(4-amino-6-bromo-8-methyl-9H-pyrimido[4,5-b]indol-9-yl)acetyl)-N-(6-bromopyridin-2-yl)-2-azabicyclo[3.1.0]hexane-3-carboxamide], < 100 nM. Turning to `Nc1ncnc2c1c1ccccc1n2CC(=O)N1C[C@H](F)C[C@H]1C(=O)NCc1cccc(Cl)c1F` [Compound 20a, (2S,4R)-1-(2-(4-amino-9H-pyrimido[4,5-b]indol-9-yl)acetyl)-N-(3-chloro-2-fluorobenzyl)-4-fluoropyrrolidine-2-carboxamide], the IC50 is < 100 nM. On to `Nc1ncnc2c1c(-c1ccc[nH]1)cn2CC(=O)N1C[C@H](F)C[C@H]1C(=O)NCc1cccc(Cl)c1F` [Compound 149b, (2S,4R)-1-(2-(4-amino-5-(1H-pyrrol-2-yl)-7H-pyrrolo[2,3-d]pyrimidin-7-yl)acetyl)-N-(3-chloro-2-fluorobenzyl)-4-fluoropyrrolidine-2-carboxamide], for which the IC50 lay within 100 to 1000 nM. Under `Cc1cccc(-c2ccc3c(c2)c2c(N)ncnc2n3CC(=O)N2[C@@H]3C[C@@H]3C[C@H]2C(=O)Nc2cccc(Br)n2)c1` [Compound 271c, (1R,3S,5R)-2-(2-(4-amino-6-(m-tolyl)-9H-pyrimido[4,5-b]indol-9-yl)acetyl)-N-(6-bromopyridin-2-yl)-2-azabicyclo[3.1.0]hexane-3-carboxamide] stands < 100 nM.

As to `Nc1ncnc2c1ncn2CC(=O)N1C[C@H](F)C[C@H]1C(=O)Nc1cccc(Br)n1` [Compound 93a, (2S,4R)-1-(2-(6-amino-9H-purin-9-yl)acetyl)-N-(6-bromopyridin-2-yl)-4-fluoropyrrolidine-2-carboxamide], the IC50 lay within 100 to 1000 nM. Under `Nc1ncnn2c(CC(=O)N3[C@@H]4C[C@@H]4C[C@H]3C(=O)NCc3cccc(Cl)c3F)ccc12` [Compound 66b, (1R,3S,5R)-2-(2-(4-aminopyrrolo[2,1-f][1,2,4]triazin-7-yl)acetyl)-N-(3-chloro-2-fluorobenzyl)-2-azabicyclo[3.1.0]hexane-3-carboxamide] stands 100 to 1000 nM; under `Nc1ncnc2c1c1cccc(C(F)(F)F)c1n2CC(=O)N1[C@@H]2C[C@@H]2C[C@H]1C(=O)Nc1cccc(Br)n1` [Compound 174g, (1R,3S,5R)-2-(2-(4-amino-8-(trifluoromethyl)-9H-pyrimido[4,5-b]indol-9-yl)acetyl)-N-(6-bromopyridin-2-yl)-2-azabicyclo[3.1.0]hexane-3-carboxamide], > 1000 nM; under `Nc1ncnc2c1ncn2CC(=O)N1[C@@H]2C[C@@H]2C[C@H]1C(=O)Nc1cncc(Br)n1` [Compound 112b, (1R,3S,5R)-2-(2-(6-amino-9H-purin-9-yl)acetyl)-N-(6-bromopyrazin-2-yl)-2-azabicyclo[3.1.0]hexane-3-carboxamide], < 100 nM. Under `Nc1ncnc2c1c1cc(C(F)(F)F)ccc1n2CC(=O)N1[C@@H]2C[C@@H]2C[C@H]1C(=O)Nc1ccccn1` [Compound 272c, (1R,3S,5R)-2-(2-(4-amino-6-(trifluoromethyl)-9H-pyrimido[4,5-b]indol-9-yl)acetyl)-N-(pyridin-2-yl)-2-azabicyclo[3.1.0]hexane-3-carboxamide] stands 100 to 1000 nM. For `CC(C)=C(F)CNC(=O)[C@@H]1C[C@H]2C[C@H]2N1C(=O)Cn1cnc2c(N)ncnc21` [Compound 111b, (1R,3S,5R)-2-(2-(6-amino-9H-purin-9-yl)acetyl)-N-(2-fluoro-3-methylbut-2-en-1-yl)-2-azabicyclo[3.1.0]hexane-3-carboxamide] the value was 100 to 1000 nM; for `COc1cc2c3c(N)ncnc3n(CC(=O)N3[C@H](C(=O)Nc4cccc(Br)n4)C[C@@]4(C)C[C@@H]34)c2cc1F` [Compound 331a, (1R,3S,5R)-2-(2-(4-amino-7-fluoro-6-methoxy-9H-pyrimido[4,5-b]indol-9-yl)acetyl)-N-(6-bromopyridin-2-yl)-5-methyl-2-azabicyclo[3.1.0]hexane-3-carboxamide], < 100 nM. With `Cc1cc(C(F)(F)F)cc2c3c(N)ncnc3n(CC(=O)N3[C@@H]4C[C@@H]4C[C@H]3C(=O)Nc3nc(Br)ccc3F)c12` [Compound 317c, (1R,3S,5R)-2-(2-(4-amino-8-methyl-6-(trifluoromethyl)-9H-pyrimido[4,5-b]indol-9-yl)acetyl)-N-(6-bromo-3-fluoropyridin-2-yl)-2-azabicyclo[3.1.0]hexane-3-carboxamide], the IC50 was in the range of 100 to 1000 nM. Under `Nc1ncnc2c1c1cccc(-c3ccccc3)c1n2CC(=O)N1[C@@H]2C[C@@H]2C[C@H]1C(=O)Nc1cccc(Br)n1` [Compound 244d, (1R,3S,5R)-2-(2-(4-amino-8-phenyl-9H-pyrimido[4,5-b]indol-9-yl)acetyl)-N-(6-bromopyridin-2-yl)-2-azabicyclo[3.1.0]hexane-3-carboxamide] stands < 100 nM.

For the origin of these results see patent publication US12679843B2, “Pyrrolopyrimidine amines as complement inhibitors” (BioCryst Pharmaceuticals, Inc., priority 2020, dated 2026).
